From US20020165130A1, “Method of sensitizing microbial cells to antimicrobial compounds” (priority 1998, published 2002)
Entries after “also recorded” stand apart in the source; their conditions may differ. Read-outs that look alike come from different tables or passages of the source.

Key:
Type in all cases: cell-based
[1] = system: Staphylococcus aureus ATCC 6538; assay: Antibiotic disc assay (zones of inhibition), S. aureus; details: for zone size, ciprofloxacin 5 μg disc: terpenoid at 0.5 mM in agar overlay; for sensitization to six different antibiotics: disc diffusion, 0.5-2 mM sesquiterpenoid
Experimental: (§1) Erwinia sp. #351 was from Presque Isle Cultures, Presque Isle, Pa. Lactobacillus fermentum ATCC 14931, zygosaccharomyces bailii ATCC 60483 and E. coli ATCC 25922 (National Committee on Clinical Laboratory Standards antibiotic test strain) were from the American Type Culture Collection, Manassas, Va. Staphylococcus aureus ATCC 6538 and Enterococcus faecalis Bact. 4025 were obtained from the UW-Madison Department of Bacteriology culture collection. All bacteria except for L. fermentum were grown statically in screwcap tubes containing 10 ml Trypticase Soy Broth (BBL, Cockeysville, Md.) for 20-22 hours at 30° C. L. fermentum was grown statically in screwcap tubes containing 10 ml MRS broth (Difco) for 20-22 hours at 30° C. Cultures of Z. bailii were grown in 125 ml culture flasks containing 50 ml YM broth (Difco) on a rotary shaker set at 200 rpm for 20-22 hours at 25° C.
(§2) The activity of terpenoid compounds toward facilitating susceptibility to antibiotics was assessed using an antibiotic disc assay. For this assay, cells from an overnight growth were suspended to a known concentration in 0.5 ml 67 mM phosphate buffer, pH 7.0 and mixed with 4.5 ml 0.7% Iso-Sensitest agar (Oxoid, Basingstoke, Hampshire, England) overlay tempered to 50° C. Terpenoid compounds dissolved in absolute ethanol were added to the cell/agar overlay mixture yielding final concentrations of 0.5, 1.0 or 2.0 mM, depending on the experiment. The final concentration of ethanol in cell overlays was 0.5% and the final concentration of target cells was ca. 10^6 cfu/ml. After thorough vortexing, terpenoid-containing cell overlays were poured over hardened Iso-Sensitest agar (2% agar) plates and allowed to set. […] After incubation, zones of inhibition were measured with a ruler from the bottom of the plates.

[2] = system: Enterococcus faecalis Bact. 4025; details: E. faecalis; for degree of sensitization to antibiotics: disc diffusion
Experimental: as §1, §2

[3] = system: Lactobacillus fermentum ATCC 14931; assay: Flow cytometry, uptake of ethidium bromide by L. fermentum; details: 0.5 mM sesquiterpenoid, 15 μM ethidium bromide, 40 minutes
Experimental: (§3) Erwinia sp. #351 was from Presque Isle Cultures, Presque Isle, Pa. Lactobacillus fermentum ATCC 14931, zygosaccharomyces bailii ATCC 60483 and E. coli ATCC 25922 (National Committee on Clinical Laboratory Standards antibiotic test strain) were from the American Type Culture Collection, Manassas, Va. Staphylococcus aureus ATCC 6538 and Enterococcus faecalis Bact. 4025 were obtained from the UW-Madison Department of Bacteriology culture collection. All bacteria except for L. fermentum were grown statically in screwcap tubes containing 10 ml Trypticase Soy Broth (BBL, Cockeysville, Md.) for 20-22 hours at 30° C. L. fermentum was grown statically in screwcap tubes containing 10 ml MRS broth (Difco) for 20-22 hours at 30° C. Cultures of Z. bailii were grown in 125 ml culture flasks containing 50 ml YM broth (Difco) on a rotary shaker set at 200 rpm for 20-22 hours at 25° C. For experiments involving flow cytometry, overnight cultures of Erwinia sp., L. fermentum and Z. bailli were set to a concentration of ca. 10^7 cfu/ml in 67 mM phosphate buffer, pH 7.0 (filtered, 0.2 μm). For the examination of sesquiterpenoids, cell suspensions containing either 0.5% ethanol and 15 μM ethidium bromide or 0.5 mM apritone, bisabolol, nerolidol or farnesol dissolved in ethanol (0.5% ethanol, final concentration) and 15 μM ethidium bromide were incubated for 40 minutes at room temperature. After incubation, cell suspensions were diluted 1:10 in 67 mM phosphate buffer, pH 7.0 (filtered, 0.2 μm) and examined using a FACScan flow cytometer (Becton Dickinson and Company, Cockeysville, Md.). Data were collected in logarithmic mode on forward scatter, side scatter and fluorescence characteristics of the cells.

[4] = system: zygosaccharomyces bailii ATCC 60483; assay: Flow cytometry, uptake of ethidium bromide by Z. bailii; details: 0.5 mM sesquiterpenoid, 15 μM ethidium bromide, 40 minutes
Experimental: as §3

[5] = antibiotic disc with 0.5 mM apritone (A) in agar overlay
[6] = antibiotic disc with 0.5 mM bisabolol (B) in agar overlay
[7] = antibiotic disc with 0.5 mM nerolidol (N) in agar overlay
[8] = antibiotic disc with 1 mM apritone (A) in agar overlay
[9] = antibiotic disc with 1 mM bisabolol (B) in agar overlay
[10] = antibiotic disc with 1 mM nerolidol (N) in agar overlay
[11] = antibiotic disc with 2 mM apritone (A) in agar overlay
[12] = antibiotic disc with 2 mM bisabolol (B) in agar overlay
[13] = antibiotic disc with 2 mM nerolidol (N) in agar overlay
[14] = antibiotic disc, control (no sesquiterpenoid in agar overlay)
[15] = antibiotic disc, control (no sesquiterpenoid)

CC[C@H]1OC(=O)[C@H](C)[C@@H](O[C@H]2C[C@@](C)(OC)[C@@H](O)[C@H](C)O2)[C@H](C)[C@@H](O[C@@H]2O[C@H](C)C[C@H](N(C)C)[C@H]2O)[C@](C)(O)C[C@@H](C)C(=O)[C@H](C)[C@@H](O)[C@]1(C)O [erythromycin]
Diameters of zones of inhibition [1, 5]: 26 millimeters | Diameters of zones of inhibition [1, 6]: 26 millimeters | Diameters of zones of inhibition [1, 7]: 27 millimeters | Diameters of zones of inhibition [1, 8]: 25 millimeters | Diameters of zones of inhibition [1, 9]: 29 millimeters | Diameters of zones of inhibition [1, 10]: 29.5 millimeters | Diameters of zones of inhibition [1, 11]: 26.5 millimeters | Diameters of zones of inhibition [1, 12]: 30 millimeters | Diameters of zones of inhibition [1, 13]: 33 millimeters | Diameters of zones of inhibition [1, 14]: 24 millimeters | Diameters of zones of inhibition [2, 8]: 18 millimeters | Diameters of zones of inhibition [2, 9]: 19 millimeters | Diameters of zones of inhibition [2, 10]: 19.5 millimeters | Diameters of zones of inhibition [2, 15]: 18.5 millimeters

CN[C@H](CC(C)C)C(=O)N[C@H]1C(=O)N[C@@H](CC(N)=O)C(=O)N[C@H]2C(=O)N[C@H]3C(=O)N[C@H](C(=O)N[C@H](C(=O)O)c4cc(O)cc(O)c4-c4cc3ccc4O)[C@H](O)c3ccc(c(Cl)c3)Oc3cc2cc(c3O[C@@H]2O[C@H](CO)[C@@H](O)[C@H](O)[C@H]2O[C@H]2C[C@](C)(N)[C@H](O)[C@H](C)O2)Oc2ccc(cc2Cl)[C@H]1O [vancomycin]
Diameters of zones of inhibition [1, 5]: 19 millimeters | Diameters of zones of inhibition [1, 6]: 20 millimeters | Diameters of zones of inhibition [1, 7]: 20 millimeters | Diameters of zones of inhibition [1, 8]: 18 millimeters | Diameters of zones of inhibition [1, 9]: 19 millimeters | Diameters of zones of inhibition [1, 10]: 23.5 millimeters | Diameters of zones of inhibition [1, 11]: 20 millimeters | Diameters of zones of inhibition [1, 12]: 21 millimeters | Diameters of zones of inhibition [1, 13]: 25 millimeters | Diameters of zones of inhibition [1, 14]: 18 millimeters | Diameters of zones of inhibition [2, 8]: 17 millimeters | Diameters of zones of inhibition [2, 9]: 18 millimeters | Diameters of zones of inhibition [2, 10]: 18 millimeters | Diameters of zones of inhibition [2, 15]: 17 millimeters

CC(C)[C@@H]1CC[C@@H](C)CC1=O [menthone]
zone size, ciprofloxacin 5 μg disc ([1]; ciprofloxacin 5 μg disc): 23 mm

CC(C)=CCC/C(C)=C\CO [nerol]
zone size, ciprofloxacin 5 μg disc ([1]; ciprofloxacin 5 μg disc): 22 mm

CN(C)[C@@H]1C(O)=C(C(N)=O)C(=O)[C@@]2(O)C(O)=C3C(=O)c4c(O)cccc4[C@@](C)(O)[C@H]3C[C@@H]12 [tetracycline]
Diameters of zones of inhibition [1, 5]: 25.5 millimeters | Diameters of zones of inhibition [1, 6]: 25 millimeters | Diameters of zones of inhibition [1, 7]: 25.5 millimeters | Diameters of zones of inhibition [1, 8]: 26 millimeters | Diameters of zones of inhibition [1, 9]: 26 millimeters | Diameters of zones of inhibition [1, 10]: 26.5 millimeters | Diameters of zones of inhibition [1, 11]: 27.5 millimeters | Diameters of zones of inhibition [1, 12]: 30 millimeters | Diameters of zones of inhibition [1, 13]: 32.5 millimeters | Diameters of zones of inhibition [1, 14]: 21.5 millimeters | Diameters of zones of inhibition [2, 8]: 22.5 millimeters | Diameters of zones of inhibition [2, 9]: 24 millimeters | Diameters of zones of inhibition [2, 10]: 23.5 millimeters | Diameters of zones of inhibition [2, 15]: 22 millimeters

C=C(C)[C@H]1CC=C(C)CC1 [limonene]
zone size, ciprofloxacin 5 μg disc ([1]; ciprofloxacin 5 μg disc): 22 mm

gentamicin
Diameters of zones of inhibition [1, 5]: 20 millimeters | Diameters of zones of inhibition [1, 6]: 22 millimeters | Diameters of zones of inhibition [1, 7]: 24 millimeters | Diameters of zones of inhibition [1, 8]: 21 millimeters | Diameters of zones of inhibition [1, 10]: 26 millimeters | Diameters of zones of inhibition [1, 11]: 23 millimeters | Diameters of zones of inhibition [1, 12]: 29 millimeters | Diameters of zones of inhibition [1, 13]: 35 millimeters | Diameters of zones of inhibition [1, 14]: 18.5 millimeters | Diameters of zones of inhibition [2, 8]: 11 millimeters | Diameters of zones of inhibition [2, 10]: 17.5 millimeters | Diameters of zones of inhibition [2, 15]: 9 millimeters

CC12CCC(CC1)C(C)(C)O2 [cineole]
zone size, ciprofloxacin 5 μg disc ([1]; ciprofloxacin 5 μg disc): 23 mm

C=C1C2CCC(C2)C1(C)C (stereo not drawn) [camphene]
zone size, ciprofloxacin 5 μg disc ([1]; ciprofloxacin 5 μg disc): 22 mm

CC(C)=CCC/C(C)=C/CO [geraniol]
zone size, ciprofloxacin 5 μg disc ([1]; ciprofloxacin 5 μg disc): 23 mm

CC1=CC=C(C(C)C)CC1 [α-terpinene]
zone size, ciprofloxacin 5 μg disc ([1]; ciprofloxacin 5 μg disc): 22 mm

CCC[C@@H]1C[C@@H](C(=O)N[C@@H]([C@H]2O[C@H](SC)[C@H](O)[C@@H](O)[C@H]2O)[C@H](C)Cl)N(C)C1 [clindamycin]
Diameters of zones of inhibition [1, 5]: 22 millimeters | Diameters of zones of inhibition [1, 6]: 24.5 millimeters | Diameters of zones of inhibition [1, 7]: 23.5 millimeters | Diameters of zones of inhibition [1, 8]: 25 millimeters | Diameters of zones of inhibition [1, 9]: 27 millimeters | Diameters of zones of inhibition [1, 10]: 31.5 millimeters | Diameters of zones of inhibition [1, 11]: 27.5 millimeters | Diameters of zones of inhibition [1, 12]: 32 millimeters | Diameters of zones of inhibition [1, 13]: 35.5 millimeters | Diameters of zones of inhibition [1, 14]: 22 millimeters | Diameters of zones of inhibition [2, 8]: 12 millimeters | Diameters of zones of inhibition [2, 9]: 11 millimeters | Diameters of zones of inhibition [2, 10]: 11 millimeters | Diameters of zones of inhibition [2, 15]: 12 millimeters

CC(C)=CCCC(C)=CCCC(C)=CCO [farnesol]
inhibitory by itself in disc assay overlay ([1]; all concentrations used (0.5, 1, 2 mM)): inhibitory | inhibitory by itself in disc assay overlay ([2]; 1 mM): inhibitory | uptake of ethidium bromide (ethidium-conferred fluorescence) [3]: facilitated the uptake of ethidium bromide | uptake of ethidium bromide (ethidium-conferred fluorescence) ([3]; listed as Farnesol): highest ethidium-conferred fluorescence peak | uptake of ethidium bromide (fluorescence, chromosomal staining) [4]: became more fluorescent

CC(C)=CCC/C(C)=C/CC1CCCC1=O (stereo not drawn) [apritone]
ability to sensitize S. aureus to ciprofloxacin ([1]; 0.5 mM terpenoid, ciprofloxacin 5 μg disc): least effective | sensitization to six different antibiotics [1]: readily sensitized | zone size, ciprofloxacin 5 μg disc ([1]; ciprofloxacin 5 μg disc): 24 mm | degree of sensitization to antibiotics ([2]; 1 mM sesquiterpenoid): only a modest degree of sensitization | uptake of ethidium bromide (ethidium-conferred fluorescence) [3]: facilitated the uptake of ethidium bromide | uptake of ethidium bromide (fluorescence, chromosomal staining) [4]: greatest degree of chromosomal staining; also recorded: became more fluorescent

C=CC(C)(O)CCC=C(C)C (stereo not drawn) [linalool]
zone size, ciprofloxacin 5 μg disc ([1]; ciprofloxacin 5 μg disc): 22.5 mm

CC(C)=CCCC(C)CCO (stereo not drawn) [citronellol]
zone size, ciprofloxacin 5 μg disc ([1]; ciprofloxacin 5 μg disc): 22.5 mm

CC(C)=CCCC(C)CC=O (stereo not drawn) [citronellal]
zone size, ciprofloxacin 5 μg disc ([1]; ciprofloxacin 5 μg disc): 22 mm

CC(C)=CCCC(C)=CC=O [citral]
zone size, ciprofloxacin 5 μg disc ([1]; ciprofloxacin 5 μg disc): 22 mm

C=CC(=C)CCC=C(C)C [myrcene]
zone size, ciprofloxacin 5 μg disc ([1]; ciprofloxacin 5 μg disc): 21.5 mm

CC(C)=CCC[C@](C)(O)C1CC=C(C)CC1 (stereo partly drawn) [bisabolol]
sensitization to six different antibiotics [1]: readily sensitized | zone size, ciprofloxacin 5 μg disc ([1]; ciprofloxacin 5 μg disc): 25 mm | zones smaller than control plates by ([2]; clindamycin 2 μg disc, 1 mM sesquiterpenoid): 1 mm | degree of sensitization to antibiotics ([2]; 1 mM sesquiterpenoid): only a modest degree of sensitization | uptake of ethidium bromide (ethidium-conferred fluorescence) [3]: facilitated the uptake of ethidium bromide | uptake of ethidium bromide (fluorescence, chromosomal staining) [4]: became more fluorescent

CC(C)CCCC(C)CCO (stereo not drawn) [tetrahydrogeraniol]
zone size, ciprofloxacin 5 μg disc ([1]; ciprofloxacin 5 μg disc): 22.5 mm

CCC(C)(O)CCCC(C)C (stereo not drawn) [tetrahydrolinalool]
zone size, ciprofloxacin 5 μg disc ([1]; ciprofloxacin 5 μg disc): 23 mm
